Columns and labels:
[1] = system: nutrient protein (lysine); assay: Effect of temperature on protein glycation, in vitro, spectrophotometer; conditions: for % decrease in AGE formation from 100 to 60 deg C.: protein glycation
Description: (§1) In one embodiment of the present application, glycation is induced in the nutrient proteins by combining them with different types of sugars and thermally processing the combination at various temperatures and with various levels of alkalinity. The processing is repeated by adding the identified glycation inhibitor. The nutrient protein in this case could be lysine or any other nutrient protein in liquid, semisolid or solid form. In the context of this invention, thermal processing implies heating the food at various temperatures using any method of cooking such as baking, roasting, frying, boiling, etc. […] The effectiveness of the inhibiting agents and their combinations were ascertained using a series of in vitro experiments with nutrient lysine or collage protein, various sugars, natural polyunsaturated fatty acids and monounsaturated fatty acids and natural, pure form of inhibiting agents in extract forms. Absorbance values, measured using a spectrophotometer, were used to determine and compare formation of glycated proteins. Industry standard iodometric titration was used to determine and compare peroxidation levels in lipids.

[2] = system: nutrient protein (lysine); assay: Effect of pH variation on protein glycation, in vitro, spectrophotometer; conditions: for % decrease om AGE formation with decreasing pH: protein glycation
Description: as §1

[3] = system: nutrient protein (lysine) in the presence of reducing sugars; assay: Inhibition of nutrient protein glycation, in vitro, absorbance by spectrophotometer
Procedure: Percentage inhibition was determined using an in vitro experiment. Lysine was used to simulate the nutrient protein.
In one embodiment of the present application, glycation is induced in the nutrient proteins by combining them with different types of sugars and thermally processing the combination at various temperatures and with various levels of alkalinity. The processing is repeated by adding the identified glycation inhibitor. The nutrient protein in this case could be lysine or any other nutrient protein in liquid, semisolid or solid form.
(§2) The effectiveness of the inhibiting agents and their combinations were ascertained using a series of in vitro experiments with nutrient lysine or collage protein, various sugars, natural polyunsaturated fatty acids and monounsaturated fatty acids and natural, pure form of inhibiting agents in extract forms. Absorbance values, measured using a spectrophotometer, were used to determine and compare formation of glycated proteins. Industry standard iodometric titration was used to determine and compare peroxidation levels in lipids.
(§3) In the case of inhibition of nutrient protein glycation and nutrient lipid peroxidation for disease prevention, it is recommended that the amount of inhibiting agent to be combined with the nutrient protein or nutrient lipid be as shown in the Table 1. Further, a combination of such inhibiting agents could be applied to increase the effectiveness of inhibition.

[4] = system: nutrient lipid (PUFA, MUFA) peroxidation; assay: Inhibition of nutrient lipid peroxidation, in vitro, iodometric titration
Procedure: Percentage inhibition was determined using an in vitro experiment. Olive oil, a polyunsaturated fatty acid (PUFA) and safflower oil, a monounsaturated fatty acid (MUFA) were used to simulate nutrient lipids.
In another embodiment, peroxidation is induced in nutrient lipids by thermally processing them at various temperatures and with various levels of alkalinity. The processing is repeated by adding the identified peroxidation inhibitor. The nutrient lipid in this case could be polyunsaturated fatty acid or monounsaturated fatty acid in liquid, semisolid or solid form.
as §2, §3

Molecule | Absorbance at different temperatures ([1]; 60 deg C.) | Absorbance at different temperatures ([1]; 80 deg C.) | Absorbance at different temperatures ([1]; 100 deg C.) | % decrease in AGE formation from 100 to 60 deg C. [1] [%] | Absorbance at different pH values ([2]; pH 8) | Absorbance at different pH values ([2]; pH 10) | Absorbance at different pH values ([2]; ph 4) | % decrease om AGE formation with decreasing pH [2] [%] | Concentration needed for 50% inhibition, Protein Glycation [3] [%] | Concentration needed for 50% inhibition, Lipid Peroxidation [4] [%]
O=C(CO)[C@@H](O)[C@H](O)[C@H](O)CO [Fructose] | 0.1 | 0.37 | 0.5 | 79.1 | 0.5 | 0.65 | 0.07 | 89.4 |  | 
O=C[C@H](O)[C@H](O)[C@H](O)CO [Ribose] | 0.13 | 0.52 | 0.59 | 78.1 | 0.59 | 0.79 | 0.09 | 88.4 |  | 
NCCC(=O)N[C@@H](Cc1cnc[nH]1)C(=O)O [Chelating agent (Carnosine), Carnosine] |  |  |  |  |  |  |  |  | 16 | 12
NC(=O)c1cccnc1 [Antioxidant (Niacinamide), Niacinamide] |  |  |  |  |  |  |  |  | 15 | 13
Oc1ccc(C=Cc2cc(O)cc(O)c2)cc1 [Phenol (Resveratrol), Resveratrol] |  |  |  |  |  |  |  |  | 10 | 8
OC[C@H]1O[C@@H](O[C@H]2[C@H](O)[C@@H](O)C(O)O[C@@H]2CO)[C@H](O)[C@@H](O)[C@H]1O (some centres unmarked) [Lactose] | 0.06 | 0.18 | 0.17 | 67.9 | 0.17 | 0.22 | 0.02 | 90.8 |  | 
OC[C@H]1O[C@H](O[C@H]2[C@H](O)[C@@H](O)[C@H](O)O[C@@H]2CO)[C@H](O)[C@@H](O)[C@@H]1O [Maltose] | 0.04 | 0.22 | 0.22 | 80.0 | 0.22 | 0.26 | 0.04 | 84.4 |  | 
O=C(O[C@@H]1Cc2c(O)cc(O)cc2O[C@@H]1c1cc(O)c(O)c(O)c1)c1cc(O)c(O)c(O)c1 [Catechin (EGCG), EGCG] |  |  |  |  |  |  |  |  | 13 | 9
Tocopherol [Antioxidant (Tocopherol)] |  |  |  |  |  |  |  |  | 17 | 15
O=C1O[C@H]([C@@H](O)CO)C(O)=C1O [Antioxidant (Ascorbic Acid), Ascorbic Acid] |  |  |  |  |  |  |  |  | 7 | 11

— patent US9827236B2, “Method of inhibiting the glycation of nutrient and endogenous proteins and peroxidation of nutrient and endogenous lipids” (priority 2014, dated 2017)
